Values after ≈ are worked out from the molar mass of the structure shown.
assay: Water solubility of test compounds compared with EPA; assay type: physicochemical; settings: thermodynamic from solid; distilled water added in small portions until clear solution
Protocol: Measurement of the water solubility of the test compound was accomplished by using methods well known to those skilled in the art. Specifically, to a weighed amount of the test compounds of Example-1, Example-2, Example-3 and EPA were taken in separate vials; distilled water was added in small portions until a clear solution was obtained. The water solubility is calculated by dividing the weight of salt, in mg, by the volume of the solution, in mL. The water solubility of the compounds of example-1, example-2, example-3 compared to EPA alone were as follows: […]

SMILES | solubility [mg/mL]
CC/C=C\C/C=C\C/C=C\C/C=C\C/C=C\CCCC(=O)OCC(C)(C)[C@@H](O)C(=O)NCCC(=O)O [Example-1, amino(3,3-dimethylguanidino)methaniminium 3-((R)-2-hydroxy-4-((5Z,8Z,11Z,14Z,17Z)-icosa-5,8,11,14,17-pentaenoyloxy)-3,3-dimethylbutanamido) propanoate] | 60 (≈ 119 mM)
CC/C=C\C/C=C\C/C=C\C/C=C\C/C=C\CCCC(=O)O [EPA, Eicosapentaenoic Acid, reference compound] | < 0.3
CC/C=C\C/C=C\C/C=C\C/C=C\C/C=C\CCCC(=O)OCC(C)(C)[C@@H](OC(=O)c1cccnc1)C(=O)NCCC(=O)O [Example-2, amino(3,3-dimethylguanidino)methaniminium 3-((R)-4-((5Z,8Z,11Z,14Z,17Z)-icosa-5,8,11,14,17-pentaenoyloxy)-3,3-dimethyl-2-(nicotinoyloxy)butanamido)propanoate] | 103 (≈ 169 mM)
CC/C=C\C/C=C\C/C=C\C/C=C\C/C=C\CCCC(=O)OCC(C)(C)[C@@H](OC(=O)c1ccccc1OC(=O)c1ccccc1OC(C)=O)C(=O)NCCC(=O)O [Example-3, amino(3,3-dimethylguanidino)methaniminium3-((R)-2-((2-((2-acetoxybenzoyl)oxy)benzoyl)oxy)-4-((5Z,8Z,11Z,14Z,17Z)-icosa-5,8,11,14,17-pentaenoyloxy)-3,3-dimethylbutanamido)propanoate] | 98 (≈ 125 mM)

From US9174931B2, “Compositions for the treatment of diabetes and pre-diabetes” (CELLIX BIO PRIVATE LIMITED, priority 2013, dated 2015)
